We go through two molecules from article PMC9323733, “Efficacy of Vafidemstat in Experimental Autoimmune Encephalomyelitis Highlights the KDM1A/RCOR1/HDAC Epigenetic Axis in Multiple Sclerosis” (Pharmaceutics, 2022).

In one series the test system is lymphocytes. Briefly: GLP toxicological studies, lymphocyte count, rats. It counts as in vivo, Wistar rats. The conditions noted are these: mean ± SD. An excerpt: (§1) T r eat m e nt N Ly m p h o c y te s Equivalent m ou se d o se
(§2) ( mg /k g p. o. ga va g e) (109/ L ) ( mg /k g p.o ga va ge)
(§3) 6 m ont h s W i sta r r at s
(§4) 9 m ont h s Be ag le d og s
(§5) Eff ec t of t r ea t me nt wi t h O RY-2 00 1 a d mi ni st e r e d by or al ga va ge o n l y m ph oc yt e s ob se r ve d i n G LP
(§6) t ox i c ol ogi c a l st udi e s i n r at a nd do g. A ni ma l s we r e t re a t e d or al l y (fi ve c o ns e c ut i ve da ys/ we e k) by ga va ge
(§7) 28 da ys or 6 mo nt hs ( ra t s) a nd 28 da ys or 9 mo nt hs (dogs). Data re prese nt de me a n ± S D. T he e q ui va l e n t
(§8) dos e i n m o use i s i n di c at e d. 1-wa y A N OV A a n d D u n ne t t’ s M ul ti pl e C o m pa ri so n t e st wa s use d.

The target of a further series is T1, human S1P1 receptor (Homo sapiens, UniProt P21453).
T1 construct: host or cells: CHO cells
The series is described as follows: CellKey impedance assay in CHO cells, agonistic and antagonistic effect. It is filed as cell-based. The conditions noted are these: GPCR based impedance assays. How it is done:
Cell on impedance modulation, using the CellKey (Cellular Dielectric Spectroscopy) detection method (CellKey 96, MDS Sciex, Concord, ON, Canada) at Eurofins Pharma Discovery Services (Celle-Lévescault, France). CHO cells were seeded onto a 96-well plate at 15.104 cells/well in HBSS buffer (Invitrogen), 20 mM HEPES (Invitrogen), 10% FCS (Invitrogen), and 0.1% BSA (Sigma), allowed to equilibrate for 60 min at 28 °C. DMSO solutions of compounds were diluted in HBSS and 0.1% BSA. Plates were placed onto the system, and measurements were made at a temperature of 28 °C. To measure the agonistic effect, compounds and controls in duplicate were added simultaneously to all of the wells using an integrated fluidics system. Impedance measurements were monitored for 10 min after ligand addition. […] To measure the antagonistic effect, compounds and controls in duplicate were pre-incubated for 15 min before the addition of the reference agonist S1P at 0.01 µM (EC80). Impedance measurements were monitored for 10 min.
Evaluation of the agonistic (a) and antagonist (b) effect of the compounds on the human S1P1 receptor. […] Data are expressed as percentage of control (no compound) activity, n = 2. TSA was used as a control; (d) Cellular HDAC activity assay. […] SAHA was used as a control. Ponceau S staining was used as loading control. Veh: Vehicle. […] TSA: Trichostatin A. SAHA: suberoylanilide hydroxamic acid.

In another series the test system is circulating lymphocytes. The series is described as follows: Toxicity studies, overall statements (circulating lymphocytes, gastrointestinal toxicity). It is filed as in vivo, rat and dog. Conditions: for total number of circulating lymphocytes: at doses effective in EAE and TMEV models.
Description: as §1, §2, §3, §4, §5, §6, §7, §8

Series [1] concerns spleen cells isolated from mice suffering chronic EAE. Briefly: Encephalitogenic T-cell response in vitro, spleen cells of EAE mice re-stimulated with MOG35–55. It counts as cell-based, mouse. The conditions noted are these: 0.5 µM ORY-2001, MOG35–55 15 µM. How it is done:
Spleen and draining lymph node (DLN) cells (10^6/mL) collected from EAE mice were stimulated in complete medium (RPMI 1640 containing 10% FBS, 50 µM 2-ME, 2 mM L-glutamine, 100 U/mL penicillin, and 100 µg/mL streptomycin) with 15 µM MOG35–55. After 48 h, cytokine (IL-4, TNF-alpha, IFN-gamma) and chemokine (IP-10 and MCP1) contents in culture supernatants were determined by sandwich ELISAs using capture/biotinylated detection Abs according to the manufacturer’s recommendations. The antibodies used are indicated in Supplementary Materials Table S4. Cell proliferation was evaluated after 72 h by adding 2.5 µCi/mL tritiated-thymidine during the last 8 h of culture and determining cpm incorporation in a Microbeta counter. We used T cell activation with an anti-CD3 […] antibody (1 µg/mL) or ConA (2.5 µg/mL) as controls of unspecific polyclonal stimulation.
Data are the mean ± SEM with dots representing individual values of biologically independent animals.

The target of the next series is T2, recombinant HDAC2 (Homo sapiens, UniProt Q92769).
T2 construct: purchased BPS Bioscience 50002
The series is described as follows: HDAC2 fluorimetric biochemical assay. How it is done: HDAC2 activity was determined using a fluorimetric assay at BPS Bioscience (San Diego, CA, USA). Compounds were dissolved in DMSO (Sigma), and serial dilutions were further diluted in HDAC assay buffer (BPS). These working solutions were incubated in duplicate at room temperature for 3 h in a mixture containing HDAC assay buffer, BSA (Fisher Scientific), and recombinant HDAC2 (BPS). The enzymatic reactions were initiated by the addition of a fluorogenic, acetylated peptide substrate (BPS) and proceeded for 30 min at 37 °C. Then, HDAC assay developer (BPS) was added, and after further incubation at room temperature, fluorescence intensity was measured at an excitation of 360 nm and an emission of 460 nm using a Tecan Infinite M1000 microplate reader. Trichostatin A (TSA, Selleckchem, Houston, TX, USA) was used as a reference inhibitor.
For the biochemical assays, the fluorescence signal relative to the background (assay mixture in the absence of the enzyme) was subtracted from each fluorescent intensity data. Activity in the presence of compound was expressed as a percentage of fluorescence intensity in the absence of the compound.

Each structure is given as a SMILES string. Entries after “also recorded” stand apart in the source; their conditions may differ.

T2 sequence (Q92769 whole entry): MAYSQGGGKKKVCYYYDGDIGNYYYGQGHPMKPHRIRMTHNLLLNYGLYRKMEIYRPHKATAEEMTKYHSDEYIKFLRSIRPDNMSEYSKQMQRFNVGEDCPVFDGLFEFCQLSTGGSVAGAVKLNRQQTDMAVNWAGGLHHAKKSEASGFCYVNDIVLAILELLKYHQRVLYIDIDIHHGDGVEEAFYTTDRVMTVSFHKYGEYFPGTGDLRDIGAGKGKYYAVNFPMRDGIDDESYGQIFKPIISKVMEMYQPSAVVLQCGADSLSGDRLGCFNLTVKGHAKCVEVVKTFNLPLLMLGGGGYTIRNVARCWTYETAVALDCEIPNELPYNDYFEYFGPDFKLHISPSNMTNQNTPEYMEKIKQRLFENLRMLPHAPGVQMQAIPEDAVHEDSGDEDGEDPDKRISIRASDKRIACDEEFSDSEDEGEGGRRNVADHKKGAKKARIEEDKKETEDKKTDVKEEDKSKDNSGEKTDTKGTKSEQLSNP
T1 sequence (P21453 whole entry): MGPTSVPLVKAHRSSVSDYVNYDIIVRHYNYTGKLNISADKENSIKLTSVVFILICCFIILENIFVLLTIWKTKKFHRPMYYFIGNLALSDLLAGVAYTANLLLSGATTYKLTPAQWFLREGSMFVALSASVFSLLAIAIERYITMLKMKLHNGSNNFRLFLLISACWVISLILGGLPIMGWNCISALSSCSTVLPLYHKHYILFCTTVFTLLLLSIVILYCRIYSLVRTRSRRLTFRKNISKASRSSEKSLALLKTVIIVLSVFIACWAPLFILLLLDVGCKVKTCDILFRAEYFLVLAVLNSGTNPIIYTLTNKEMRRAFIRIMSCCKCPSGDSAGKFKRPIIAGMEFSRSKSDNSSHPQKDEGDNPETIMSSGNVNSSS

`Nc1nnc(CN[C@@H]2C[C@H]2c2ccc(OCc3ccccc3)cc2)o1` [ORY-2001]: the Lymphocytes in the series on lymphocytes (6 months Wistar rats, 0.07 mg/kg p.o. gavage (equivalent mouse dose 0.14)) was 3.25 ± 0.75 109/L; in the series on lymphocytes (6 months Wistar rats, 0.20 mg/kg p.o. gavage (equivalent mouse dose 0.40)), 4.02 ± 0.99 109/L; with lymphocytes (6 months Wistar rats, 0.40 mg/kg p.o. gavage (equivalent mouse dose 0.80)) it was 3.72 ± 1.12 109/L; in the series with lymphocytes (28 d Wistar rats, 0.07 mg/kg p.o. gavage (equivalent mouse dose 0.14)), 3.65 ± 1.39 109/L; in the series on lymphocytes (28 d Wistar rats, 0.20 mg/kg p.o. gavage (equivalent mouse dose 0.40)), 3.44 ± 0.62 109/L; in the series on lymphocytes (28 d Wistar rats, 0.60 mg/kg p.o. gavage (equivalent mouse dose 1.20)) it was 3.89 ± 1.14 109/L. In addition, the “agonist and antagonist activity at S1P1 receptor” value is listed as “neither ORY-2001 nor ORY-LSD1 (at concentrations well above those needed to fully inhibit KDM1A) showed any activity” at human S1P1 receptor and “does not target the S1PR” on human S1P1 receptor (listed as vafidemstat). Besides, the “total number of circulating lymphocytes” value with circulating lymphocytes is “did not significantly impact the total number of circulating lymphocytes”; with circulating lymphocytes (listed as vafidemstat), “do not significantly impact the total number of circulating lymphocytes; also recorded: do not significantly affect hematology or lymphocyte counts”. Moreover, the gastrointestinal toxicity result in the series with circulating lymphocytes (at effective doses, listed as vafidemstat) is given as “did not induce any signs of gastrointestinal toxicity; also recorded: without signs of gastro-intestinal toxicity”. Also, the “IL-10 and IL-4 levels” value in series [1] was “increasing the levels of the anti-inflammatory mediators IL-10 and IL-4”. The “MOG35–55-induced proliferation and cytokine production” value in series [1] was “deactivated the MOG35–55 -induced proliferation and cytokine production in vitro”.
Turning to `CCCCCCCCc1ccc(CCC(N)(CO)CO)cc1` [FTY720, Fingolimod, reference compound], the “impact on recombinant HDAC2 activity” value at recombinant HDAC2 is “did not inhibit HDAC; also recorded: unable to confirm the previous studies reporting that FTY720 or FTY720-P had any significant impact”.
